Assay [1] relates to K562A7 parental leukemia cells. Kind of assay: Cell proliferation assay (MTS/PMS), K562A7 parental. The class given is cell-based. The settings on record: Homo sapiens, 96 h, 4-day incubation, mean ± SE of at least two experiments, read-out: Sensitivity to cell killing, IC50. As to the method: (§1) The activity of the compound of formula (I) on P-glycoprotein- or Multidrug Resistant Protein-expressing tumour cell lines and respective parental cells, K562/C1,000+ and K562A7, COR-L23/R and COR-L23, was compared to that of a known substrate for P-glycoprotein/Multidrug Resistant Protein, adriamycin.
(§2) All samples tested were dissolved in DMSO and further dilutions (typically 1:1,000) were made in culture medium, with final DMSO concentrations never exceeding 0.1% (v/v) in cell proliferation assays. MTT [3-(4,5-dimethylthiazol-2-yl)-2,5-diphenyltetrazolium bromide], MTS [3-(4,5-dimethylthiazol-2-yl)-5-(3-carboxymethoxyphenyl)-2-(4-sulfophenyl)-2H-tetrazolium inner salt] and PMS [phenazine methosulfate] were dissolved in phosphate-buffered saline (PBS).
(§3) MTT and MTS are both tetrazolium salts widely used in cell proliferation and toxicity tests. Upon entry in a viable cell, these tetrazolium salts are (bio)reduced to an intensely colored formazan derivative. In case of MTT, the formed formazan is crystalline and needs to be dissolved before colorimetric quantification. MTS needs an intermediate electron acceptor (PMS) for its efficient reduction into a soluble formazan end product and is used for suspension cell lines. […]

The subject of a further assay is COR-L23 cells. Kind of assay: Cell proliferation assay (MTT), COR-L23 parental. Type of assay: cell-based. The settings on record: Homo sapiens, 96 h, 4-day incubation, mean ± SE of at least two experiments, read-out: Sensitivity to cell killing, IC50. As to the method:
as §1, §2, §3

The next assay deals with K562/C1,000+ cells. Kind of assay: Cell proliferation assay (MTS/PMS), K562/C1,000+ P-glycoprotein overexpressing. Type of assay: cell-based, human. As to the method: as §1, §2, §3
For the next assay, the system named is COR-L23/R cells. The assay is described as follows: Cell proliferation assay (MTT), COR-L23/R Multidrug Resistant Protein overexpressing. The class given is cell-based, human. The method, then:
as §1, §2, §3

The source of these data is patent publication US7803600B2 (priority 2002, dated 2010).

The IC50 is the concentration at which inhibition is half-maximal.

With `COc1cccc2c1C(=O)c1c(O)c3c(c(O)c1C2=O)C[C@@](O)(C(=O)CO)C[C@@H]3O[C@H]1C[C@H](N)[C@H](O)[C@H](C)O1` [Adriamycin, adriamycin], the IC50 in assay [1] is 26.8 ± 5.82 nM; with COR-L23 cells, 36.6 ± 19.1 nM; in the assay with K562/C1,000+ cells (Homo sapiens, 96 h, K562/C1,000+ P-glycoprotein overexpressing cells, 4-day incubation, mean ± SE of at least two experiments, read-out: Sensitivity to cell killing, IC50), 7.83 µM; in the assay on COR-L23/R cells (Homo sapiens, 96 h, COR-L23/R Multidrug Resistant Protein overexpressing cells, 4-day incubation, mean ± SE of at least two experiments, read-out: Sensitivity to cell killing, IC50), 676 ± 261 nM. Also, the “Resistance to cell killing as compared to parental cell line” value in the assay with K562/C1,000+ cells (K562/C1,000+ versus parental K562A7) was determined as 250 fold; with COR-L23/R cells (COR-L23/R versus parental COR-L23), 20 fold.
